According to US12573042B2, “Differentiation device, differentiation method for depression symptoms, determination method for level of depression symptoms, stratification method for depression patients, determination method for effects of treatment of depression symptoms, and brain activity training device” (ADVANCED TELECOMMUNICATIONS RESEARCH INSTITUTE INTERNATIONAL, priority 2017, dated 2026):

Key:
Type in all cases: in vivo, human
[1] = test system: healthy subjects; assay: Change of FC #1 and FC #2 (rs-fMRI) on administration of SSRI to healthy subjects; details: 19 healthy subjects, single administration, p=0.033; no difference before (p=0.18)
From the text: In a test by two-way analysis of variance, the functional connectivities of FC #1 and FC #2 have a significant temporal interaction through treatment (FC #number x time, F (1,23)=6.70, p=0.016), and a significant difference was not observed for each primary effect. […] In all the diagrams of FIG. 32 and FIG. 33, transition toward the positive direction indicates transition toward the direction of the melancholic MDD, whereas transition toward the negative direction indicates transition toward the direction of the healthy individual. This is because the sign of the weight of the melancholic MDD classifier was multiplied by the FC or the difference in FC. […] Eleven melancholic MDD patients (serotonin-norepinephrine reuptake inhibitor (SNRI) duloxetine was administered for 6 weeks to 8 weeks) gathered in Chiba were considered (FIG. 32c). […] Next, the changes of FC #1 and FC #2 at the time of administration of SSRI to healthy subjects (19 persons) were observed. […] There was no difference before treatment (p=0.18), and a significant relation was […] observed (FIG. 32d).

[2] = test system: melancholic MDD patients; assay: Change of functional connectivities FC #1 and FC #2 (rs-fMRI) through antidepressant treatment
From the text: Next, contribution to ΔWLS was considered for each functional connectivity in order to consider an influence of SSRI (escitalopram) on each of the 12 pairs of functional connectivities.
Specifically, in preliminary and subsequent analysis of administration, the following numerical expression was used to calculate a contribution score of each functional connectivity.
That is, si represents a difference in average connectivity strength between the healthy control group and the MDD group weighted by the weight of the classifier. […] Further, in Expression 2, FCi^MDD represents reduction (a negative sign through subtraction). […] In other words, the fact that ci becomes negative means that FCi after treatment becomes closer to the corresponding FC of a healthy individual. In contrast, the fact that ci becomes positive means that FCi after treatment becomes closer to the MDD. The numbers of members in the healthy control group and in the MDD group are different from each other, and thus the significant difference between ci and si for each FCi is evaluated by a Welch's t-test. The Welch's t-test is calculated in accordance with the following numerical expression.

[3] = test system: melancholic MDD patients; assay: WLS score (related weighted sum of 12 functional connectivities, rs-fMRI) before and after antidepressant administration; details: 24 remitted melancholic MDD patients, administered for 6 weeks to 8 weeks, FIG. 31c
Description: In this manner, a regression expression for classifying a melancholic MDD patient and a healthy individual, namely, a classifier, was created. Further, a related weighted sum (the associated weighted linear sum: WLS) was calculated as an indicator for determining whether each subject has the melancholic MDD or is healthy.
Next, whether an effect of escitalopram, which is a selective serotonin reuptake inhibitor (SSRI), can be evaluated by the WLS score was considered. A smoothed histogram of the WLS score of each of 24 remitted melancholic MDD patients shown in Table 1a, to whom escitalopram was administered for 6 weeks to 8 weeks, is shown in FIG. 31c.

For Fc1ccc([C@@H]2CCNC[C@H]2COc2ccc3c(c2)OCO3)cc1 [paroxetine], the “difference between FC #1 and FC #2 after administration” value [1] was “significant difference between FC #1 and FC #2 was observed”.

For CNCC[C@H](Oc1cccc2ccccc12)c1cccs1 [duloxetine], the “difference between FC #1 and FC #2 after treatment” value ([2]; 11 melancholic MDD patients of Chiba, administered for 6 weeks to 8 weeks, paired t-test p=0.10, before treatment n.s. p=0.77) was “difference in trend level”.

CN(C)CCC[C@@]1(c2ccc(F)cc2)OCc2cc(C#N)ccc21 [escitalopram] was tested, and the “distribution of the WLS score after administration” value [3] was “shifted toward the healthy control group”, the “difference between FC #1 and FC #2 after treatment” value ([2]; Hiroshima cohort, corresponding t-test p=0.002, no difference before treatment (p=0.96)) was “significant difference was observed after treatment” and the “transition of FC #1 after treatment” value ([2]; Hiroshima cohort, positive direction = direction of melancholic MDD) was “transitioned toward the positive direction”.
